Source: ChEMBL document CHEMBL1201862, “PubChem BioAssay data set” (2004)
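Exposure lasted 48 hours, with cells grown in 96-well plates and compounds tested at five concentrations. GI50 is the concentration that inhibits growth by half.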 Active and inactive are the calls of the source. Rule as the data show it: active = GI50 up to about 1.1 µM and inactive = higher.

Tests used:
Experiment in all cases: NCI tumour cell line growth inhibition, 48 h
T47D = test system: T47D
OVCAR-5 = test system: OVCAR-5
786-0 = test system: 786-0
HOP-62 = test system: HOP-62
SK-MEL-5 = test system: SK-MEL-5
HCT-15 = test system: HCT-15
U-251 = test system: U-251
SNB-75 = test system: SNB-75
MDA-MB-435 = test system: MDA-MB-435
SK-MEL-28 = test system: SK-MEL-28
Malme-3M = test system: Malme-3M
KM12 = test system: KM12
SR = test system: SR
OVCAR-4 = test system: OVCAR-4
A549 = test system: A549
ACHN = test system: ACHN
IGROV-1 = test system: IGROV-1
MDA-N = test system: MDA-N
COLO 205 = test system: COLO 205
RPMI-8226 = test system: RPMI-8226
MDA-MB-231 = test system: MDA-MB-231
NCI-H23 = test system: NCI-H23
NCI-H460 = test system: NCI-H460
DU-145 = test system: DU-145
HCC 2998 = test system: HCC 2998
BT-549 = test system: BT-549
CAKI-1 = test system: CAKI-1
CCRF-CEM = test system: CCRF-CEM
HL-60 = test system: HL-60
NCI-H226 = test system: NCI-H226
SW-620 = test system: SW-620
UACC-62 = test system: UACC-62
A498 = test system: A498
MOLT-4 = test system: MOLT-4
NCI-H522 = test system: NCI-H522
SK-MEL-2 = test system: SK-MEL-2
RXF 393 = test system: RXF 393
TK-10 = test system: TK-10
Hs-578T = test system: Hs-578T
OVCAR-8 = test system: OVCAR-8
M14 = test system: M14
UO-31 = test system: UO-31
PC-3 = test system: PC-3
HOP-92 = test system: HOP-92
SF-268 = test system: SF-268
HT-29 = test system: HT-29
SK-OV-3 = test system: SK-OV-3
HCT-116 = test system: HCT-116
SNB-19 = test system: SNB-19
SF-295 = test system: SF-295
EKVX = test system: EKVX
MCF7 = test system: MCF7
UACC-257 = test system: UACC-257
K562 = test system: K562
OVCAR-3 = test system: OVCAR-3
NCI/ADR-RES = test system: NCI/ADR-RES
SN12C = test system: SN12C
SF-539 = test system: SF-539
LOX IMVI = test system: LOX IMVI

COC1=CC(=O)c2c(cc(COP(N)(=O)N(CCCl)CCCl)n2C)C1=O (stereo unspecified)
GI50 (T47D): < 0.0486 µM (active) | GI50 (OVCAR-5): 1.26 µM (inactive) | GI50 (786-0): 0.0277 µM (active) | GI50 (HOP-62): 2.18 µM (inactive) | GI50 (SK-MEL-5): 1.36 µM (inactive) | GI50 (HCT-15): 1.13 µM | GI50 (U-251): 0.0822 µM (active) | GI50 (SNB-75): 0.955 µM (active) | GI50 (MDA-MB-435): 1.61 µM (inactive) | GI50 (SK-MEL-28): 2.9 µM (inactive) | GI50 (Malme-3M): 1.4 µM (inactive) | GI50 (KM12): 1.49 µM (inactive) | GI50 (SR): 0.0603 µM (active) | GI50 (OVCAR-4): 3.52 µM (inactive) | GI50 (A549): 0.918 µM (active) | GI50 (ACHN): < 0.0183 µM (active) | GI50 (IGROV-1): 0.17 µM (active) | GI50 (MDA-N): 1.61 µM (inactive) | GI50 (COLO 205): 1.39 µM (inactive) | GI50 (RPMI-8226): 1.37 µM (inactive) | GI50 (MDA-MB-231): 2.33 µM (inactive) | GI50 (NCI-H23): 0.7 µM (active) | GI50 (NCI-H460): 0.123 µM (active) | GI50 (DU-145): 1.75 µM (inactive) | GI50 (HCC 2998): 0.446 µM (active) | GI50 (BT-549): 0.471 µM (active) | GI50 (CAKI-1): < 0.0158 µM (active) | GI50 (CCRF-CEM): < 0.0256 µM (active) | GI50 (HL-60): 0.302 µM (active) | GI50 (NCI-H226): 0.14 µM (active) | GI50 (SW-620): 0.158 µM (active) | GI50 (UACC-62): 0.721 µM (active) | GI50 (A498): 2.2 µM (inactive) | GI50 (MOLT-4): 0.0141 µM (active) | GI50 (NCI-H522): 0.0746 µM (active) | GI50 (SK-MEL-2): 1.84 µM (inactive) | GI50 (RXF 393): 0.457 µM (active) | GI50 (TK-10): 1.67 µM (inactive) | GI50 (Hs-578T): 8.26 µM (inactive) | GI50 (OVCAR-8): 0.433 µM (active) | GI50 (M14): 0.826 µM (active) | GI50 (UO-31): 0.557 µM (active) | GI50 (PC-3): 1.49 µM (inactive) | GI50 (HOP-92): 1.41 µM (inactive) | GI50 (SF-268): < 0.032 µM (active) | GI50 (HT-29): 0.186 µM (active) | GI50 (SK-OV-3): 1.02 µM (active) | GI50 (HCT-116): 0.122 µM (active) | GI50 (SNB-19): 2.64 µM (inactive) | GI50 (SF-295): 0.189 µM (active) | GI50 (EKVX): 0.676 µM (active) | GI50 (MCF7): 0.0767 µM (active) | GI50 (UACC-257): 3.28 µM (inactive) | GI50 (K562): 1.52 µM (inactive) | GI50 (OVCAR-3): 0.342 µM (active) | GI50 (NCI/ADR-RES): 3.29 µM (inactive) | GI50 (SN12C): < 0.0241 µM (active) | GI50 (SF-539): 0.0785 µM (active) | GI50 (LOX IMVI): 0.0284 µM (active)

Cc1cc(S(=O)(=O)Nc2nnc3c(C(F)(F)F)cc(Cl)cn23)c(S)cc1Cl
GI50 (T47D): 70.5 µM (inactive) | GI50 (OVCAR-5): > 100 µM (inactive) | GI50 (786-0): > 100 µM (inactive) | GI50 (HOP-62): > 100 µM (inactive) | GI50 (SK-MEL-5): > 100 µM (inactive) | GI50 (HCT-15): > 100 µM | GI50 (U-251): 46.6 µM (inactive) | GI50 (SNB-75): 90.8 µM (inactive) | GI50 (MDA-MB-435): 76 µM (inactive) | GI50 (SK-MEL-28): > 100 µM (inactive) | GI50 (Malme-3M): > 100 µM (inactive) | GI50 (KM12): 94.8 µM (inactive) | GI50 (SR): 81.7 µM (inactive) | GI50 (OVCAR-4): 40.3 µM (inactive) | GI50 (A549): > 100 µM (inactive) | GI50 (ACHN): 48.2 µM (inactive) | GI50 (IGROV-1): > 100 µM (inactive) | GI50 (MDA-N): > 100 µM (inactive) | GI50 (COLO 205): > 100 µM (inactive) | GI50 (RPMI-8226): > 100 µM (inactive) | GI50 (MDA-MB-231): > 100 µM (inactive) | GI50 (NCI-H460): 45.3 µM (inactive) | GI50 (DU-145): > 100 µM (inactive) | GI50 (HCC 2998): > 100 µM (inactive) | GI50 (BT-549): > 100 µM (inactive) | GI50 (CAKI-1): 56.6 µM (inactive) | GI50 (CCRF-CEM): > 100 µM (inactive) | GI50 (HL-60): > 100 µM (inactive) | GI50 (NCI-H226): > 100 µM (inactive) | GI50 (SW-620): > 100 µM (inactive) | GI50 (UACC-62): 41.5 µM (inactive) | GI50 (A498): > 100 µM (inactive) | GI50 (MOLT-4): 74 µM (inactive) | GI50 (NCI-H522): > 100 µM (inactive) | GI50 (SK-MEL-2): 64.4 µM (inactive) | GI50 (RXF 393): > 100 µM (inactive) | GI50 (TK-10): > 100 µM (inactive) | GI50 (Hs-578T): > 100 µM (inactive) | GI50 (OVCAR-8): > 100 µM (inactive) | GI50 (M14): 67.1 µM (inactive) | GI50 (UO-31): 33 µM (inactive) | GI50 (PC-3): > 100 µM (inactive) | GI50 (HOP-92): > 100 µM (inactive) | GI50 (SF-268): > 100 µM (inactive) | GI50 (HT-29): > 100 µM (inactive) | GI50 (SK-OV-3): > 100 µM (inactive) | GI50 (HCT-116): 57.9 µM (inactive) | GI50 (SNB-19): 38.2 µM (inactive) | GI50 (EKVX): > 100 µM (inactive) | GI50 (MCF7): > 100 µM (inactive) | GI50 (UACC-257): > 100 µM (inactive) | GI50 (K562): > 100 µM (inactive) | GI50 (OVCAR-3): 89.5 µM (inactive) | GI50 (NCI/ADR-RES): > 100 µM (inactive) | GI50 (SN12C): > 100 µM (inactive) | GI50 (SF-539): > 100 µM (inactive) | GI50 (LOX IMVI): > 100 µM (inactive)
